Key:
KB cells [1] = assay: Inhibition of cell growth by XTT assay; assay type: cell-based, human; details: 1, 2 or 3 days
Procedure: Cell culture and treatment.
Evaluation of dendrimer cytotoxicity.
Because the binding of the conjugate to KB cells reaches maximal uptake within 1 h (Quintana et al, 2002. Pharmaceutical Research 19: 1310-1316.), the effect of the G5-FI-FA-MTX on cell growth was initially tested by pre-incubation of cells with the conjugate for 1 h, followed by incubation in a drug-free medium for 5 d. […] When the cells were pre-incubated with dendrimers for 4 h, there was a modest decrease of about 10% in cell growth as determined by XTT assay. The cytotoxicity measurements were therefore done by incubation with the dendrimer for a minimum of 24 h, a pre-incubation time period shown to induce significant cytotoxicity.
The inhibition of cell growth induced by the conjugates was also tested by XTT assay which is based on the conversion of XTT to formazan by the active mitochondria of live cells (See, e.g., Roehm et al, J Immunol Methods 142, 257 (1991)).
As free FA blocks the uptake of the dendrimers as well as rescues cells from MTX-induced cytotoxicity, the effect of pre-incubation of cells with excess FA on the anti-proliferative effect of G5-FITC-FA-MTX was tested. KB cells were exposed to different concentrations of the conjugate or free MTX for 24 h in the absence or presence of 50 μM FA. The incubation medium was removed, the cells were rinsed and incubated with fresh medium for 5 additional days in the absence of the drugs, and the XTT assay was performed (See, e.g., FIG. 24, □, ▪, represents cells treated with MTX; Δ, ▴, represents cells treated with G5-FITC-FA-MTX).
The anti-proliferative effect of the MTX-conjugates was compared to conjugates that lacked either the FA or the FITC molecule. KB cells were incubated with 30 nM of the conjugates (=150 nM effective MTX concentration) for 24 h and the incubation medium was removed. The cells were rinsed and incubated for an additional 5 d in fresh medium in the absence of the drugs, and the XTT assay was performed.

KB cells [2] = assay: Inhibition of cell growth by total cell protein
Procedure: Cell culture and treatment. KB cells were maintained in folate-free medium containing 10% serum (See, e.g., Quintana et al, Pharm. Res. 19, 1310 (2002)) to provide extracellular FA similar to that found in human serum. Cells were plated in 12-well plates for uptake studies, in 24-well plates for cell growth analysis, and in 96-well plates for XTT assay. Cells were rinsed with FA-free medium containing dialyzed serum and incubated at 37° C. with dendrimer-drug conjugates for the indicated time periods and concentrations. KB cells were also maintained in RPMI medium containing 2 μM FA to obtain cells which express low FAR.
Evaluation of dendrimer cytotoxicity. Cell growth was determined by assay of the total protein in lysates of treated cells using a bicinchoninic acid reagent (PIERCE, and by XTT assay, using a kit from Roche.
Time course and dose dependent inhibition of cell growth. Previous studies have shown that MTX-induced cytotoxicity is detectable in vitro only if the medium is completely deprived of FA (See, e.g., Sobrero & Bertino, Int. J. Cell Cloning 4, 51 (1986)). The effect of the trifunctional dendrimers on cell growth was tested in cells incubated in a FA-deficient medium. Cells were treated with 300 nM conjugates (equivalent of 1500 nM MTX) or 1500 nM free MTX for 1-4 days, and cell proliferation was determined by estimation of cellular protein content. Cells were treated for 2 days with different concentrations of the conjugates or free MTX (the conjugate concentration is given as MTX equivalents, with 5 MTX per dendrimer molecule). KB cells which express high and low FAR were incubated with 30 nM of the dendrimers for 1 hr at 37° C., rinsed, and the fluorescence of cells was determined by flow cytometric analysis (See. e.g., FIG. 21, left panel).
KB cells were treated with 150 or 500 nM MTX in the presence or absence of equimolar concentrations of free FA for 24 h. […] The cells were rinsed to remove the drugs and incubated with fresh medium for an additional 6 d, and total cell protein was determined.

s.c. human KB xenografts = assay: Targeted drug delivery, tumor growth and survival in SCID mice with KB xenografts; assay type: in vivo, SCID CB-17 mice; details: for effect on tumor growth: first trial
Procedure: Recipient animal and tumor model.
(§1) Delivery of targeted nanoparticle therapeutic. Twice weekly, SCID mice with s.c. KB xenografts, starting on day 4 after tumor implantation, received via the tail vein an injection of either targeted or nontargeted conjugate containing methotrexate, a conjugate without methotrexate, free methotrexate, or saline as a control. The compounds were delivered in a 0.2 mL volume of saline per 20 g of mouse. The single dose of methotrexate delivered each time equaled 0.33 mg/kg. The higher doses of 1.67 and 3.33 mg/kg free methotrexate were also tested. The conjugates were delivered at equimolar concentration of methotrexate calculated based on the number of methotrexate molecules present in a nanoparticle. The conjugate without methotrexate was delivered at equimolar concentration of dendrimer. In the initial trial, six groups of mice with five mice in each group received up to 15 injections. In the follow-up trial, mice received up to 28 injections dependent on their survival. The body weights of the mice were monitored throughout the experiment as an indication of adverse effects of the drug. Histopathology of multiple organs was done at the termination of each trial and each time mouse had to be euthanized due to toxic effects or tumor burden. Tissues from lung, heart, liver, pancreas, spleen, kidney, and tumor were analyzed. Additionally, cells were isolated from tumors, stained with targeted fluorescein-labeled conjugate, and tested for the presence of folic acid receptors using flow cytometer.
Targeted drug delivery to tumor cells through the folate receptor. The efficacy of different doses of conjugates was tested on SCID CB-17 mice bearing s.c. human KB xenografts and was compared with equivalent and higher doses of free methotrexate. Mice were maintained on the folic acid-deficient diet for 3 weeks before injection of the KB tumor cells to achieve circulating levels of folic acid that approach those in human serum and to prevent down-regulation of folate receptors on tumor xenografts (See, Mathias et al., J Nucl Med 29, 1579 (1998)). Six groups of SCID mice with five mice in each group were injected s.c. on one flank with 5×10^6 KB cells in 0.2 mL PBS suspension. The highest total dose of G5-FI-FA-MTX therapeutic used equals 55.0 mg/kg and is equivalent to a 5.0 mg/kg total cumulative dose of free methotrexate (FIG. 29). The therapeutic dose of the conjugate was compared with three cumulative doses of free methotrexate equivalent to 33.3, 21.7, and 5.0 mg/kg accumulated in 10 to 15 injections based on mouse survival. Saline and the conjugate without methotrexate (G5-FI-FA) were used as controls.

[3] = Toxicity of dendrimer conjugates and free methotrexate in mice (body weight, histopathology); assay type: in vivo
Procedure: as §1
Toxicity of dendrimer conjugates. […] No gross toxicity, either acutely or chronically up to 99 days, was observed regardless of whether the dendrimer conjugate contained methotrexate. The weight was monitored throughout the experiment and no loss of weight was observed; in fact, the animals gained weight. At each time point, a gross examination and histopathology of the liver, spleen, kidney, lung, and heart were done. No morphologic abnormalities were observed on the histopathology examination.
The remaining experimental groups had very uniform body weight fluctuations nonindicative of toxicity when compared with control groups with saline or conjugate without methotrexate.

KB tumor = assay: Biodistribution of fluorescent dendrimer conjugates in tumor (confocal microscopy, flow cytometry); assay type: in vivo, mice; details: single-cell suspension from tumors, versus nontargeted
Procedure: Biodistribution of fluorescent dendrimer conjugates. […] Flow cytometry analysis was done with single-cell suspension isolated from tumor. Tumor was crushed, cell suspension filtered through 70 μm nylon mesh (Becton Dickinson, Franklin Lakes, N.J.), and washed with in PBS. Samples were analyzed using an EPICS XL flow cytometer (Coulter, Miami, Fla.). As determined by prior propidium iodine staining, only live cells were gated for analysis. Data were reported as the mean channel fluorescence of the cell population.
For confocal microscope imaging, tissue was dissected, embedded in OCT, and frozen in 2-methyl-butane in a dry ice bath. Sections (15 μm) were cut on a cryostat, thaw mounted onto slides, and stored at −80° C. until stained. After staining, the slides were fixed in 4% paraformaldehyde, rinsed in phosphate buffer (0.1 mol/L; pH 7.2), and mounted in Prolong. The images were acquired using a Zeiss 510 metalaser scanning confocal microscope equipped with a ×40 Plan-Apo 1.2 numerical aperture (water immersion) objective with a correction collar. The confocal image was recorded as 512×512×48 pixels with a scale of 0.45×0.45×0.37 μm per pixel. Each image cube was optically cut into 48 sections, and the sections that cut through the nucleus and cytoplasm were presented.
Targeting and internalization of fluorescent dendrimer conjugate. […]

For `CN(Cc1cnc2nc(N)nc(N)c2n1)c1ccc(C(=O)N[C@@H](CCC(=O)O)C(=O)O)cc1` [MTX, Methotrexate, reference compound], the “inhibition of cell growth, XTT” value (KB cells [1]) was “time-dependent cytotoxicity”, the “inhibition of cell growth (FIGS. 21 and 22)” value (KB cells [2]; FA-deficient medium, 1-4 days, different concentrations) was “inhibited cell growth in a time- and dose-dependent fashion” and the “growth inhibition, free MTX versus equimolar MTX in G5-FITC-FA-MTX” value (KB cells [2]; below 1 μM) was “higher”. The “effect on tumor growth” value (s.c. human KB xenografts; up to 15 injections, cumulative 5.0 mg/kg methotrexate equivalents or equimolar dendrimer) was “no effect on tumor growth”, the “effect on tumor growth” value (s.c. human KB xenografts; cumulative 33.3 and 21.7 mg/kg) was “affecting tumor growth” and the “day by which all mice died” value (s.c. human KB xenografts; second 99-day trial) was at most 66 days. The “survivors at the termination of the trial” value (s.c. human KB xenografts; second 99-day trial) was “no mice surviving”, the “time at which doses became lethal” value ([3]; cumulative doses 33.3 and 21.7 mg/kg) was 32 to 36 days and the “histopathology of the liver” value ([3]; mouse, in vivo) was “advanced liver lesions, collections of inflammatory cells, and periportal inflammation”. For the same compound, the toxicity ([3]; total accumulated dose equivalent to 5.0 mg/kg free methotrexate) was “nor free methotrexate at the same dose were toxic”.
For G5-(Ac)82-(6-TAMRA)3-(FA)4 [G5-6T-FA], the “mean channel fluorescence of tumor cells, flow cytometry” value (KB tumor) was “higher”.

From patent US20090104119A1, “Dendrimer Based Compositions And Methods Of Using The Same” (priority 2004, published 2009)
